According to patent US7825253B2, “2-aminoquinoline derivatives” (Hoffmann-La Roche Inc., priority 2006, dated 2010):

Columns and labels:
[1] = target: T1, recombinant human 5-HT5A receptor (Homo sapiens, UniProt P47898); experiment: [3H]LSD radioligand binding assay; details: for Ki: [3H]LSD approx. 1 nM, membranes from HEK-EBNA cells transiently expressing 5-HT5A, Ki from IC50 by Cheng-Prussoff
T1 construct: expressed in transfected cells; host or cells: Human Embryonic Kidney-EBNA (HEK-EBNA) cells, transient cDNA expression; membranes
T1 sequence (P47898 whole entry): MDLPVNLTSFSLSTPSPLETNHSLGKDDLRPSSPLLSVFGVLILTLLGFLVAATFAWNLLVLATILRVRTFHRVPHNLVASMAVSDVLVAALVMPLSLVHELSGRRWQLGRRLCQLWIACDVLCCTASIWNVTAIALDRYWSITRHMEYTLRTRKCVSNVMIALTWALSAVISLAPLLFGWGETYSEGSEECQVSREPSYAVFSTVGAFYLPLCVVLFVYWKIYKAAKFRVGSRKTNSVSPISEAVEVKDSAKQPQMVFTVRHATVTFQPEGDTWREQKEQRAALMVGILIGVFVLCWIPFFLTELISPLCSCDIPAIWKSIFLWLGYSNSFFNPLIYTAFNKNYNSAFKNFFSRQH
Method: A [^3H]LSD radioligand binding assay was used to determine the affinity of the compounds for the recombinant human 5-HT5A receptor, in membranes from transiently (cDNA) expressed 5-HT5A receptors in Human Embryonic Kidney-EBNA (HEK-EBNA) cells. Assay buffer consisted of Tris (50 mM) buffer containing 1 mM EGTA, 10 mM MgCl2 (pH 7.4) and 10 μM pargyline. The binding assay was carried out in 96-well-plates in the presence of [^3H]LSD (approximately 1 nM), approximately 2 μg/well of membrane protein, and 0.5 mg of Ysi-poly-l-lysine SPA beads in a final volume of 200 μl of buffer. Non-specific binding was defined using methiothepin 2 μM. Compounds were tested at 10 concentrations. All assays were conducted in duplicate and repeated at least two times. Assay plates were incubated for 120 min at room temperature before centrifugation. Bound ligand was determined using a Packard Topcount scintillation counter. IC50 values were calculated using a non-linear curve fitting program and Ki values calculated using the Cheng-Prussoff equation.

Compound | Ki [1] [nM] | melting point [°C] | activity at the 5-HT5A receptor (in words) [1]
COc1ccccc1CNc1ccc2c(C(=N)c3ccc(F)cc3)cccc2n1 [Example 136, {5-[(4-Fluoro-phenyl)-imino-methyl]-quinolin-2-yl}-(2-methoxy-benzyl)-amine] | 35.6 | 155 | 
COc1ccccc1CNc1ccc2c(CNC(=O)c3ccc(F)cc3)cccc2n1 [Example 146] | 86 | 162.5 | 
Cc1ccc(CNc2ccc3c(CNC(=O)c4ccc(F)cc4)cccc3n2)o1 [Example 126, 4-Fluoro-N-{2-[(5-methyl-furan-2-ylmethyl)-amino]-quinolin-5-ylmethyl}-benzamide] |  | 173 | 
COc1ccccc1CNc1ccc2c(-c3noc(C)n3)cccc2n1 [Example 150, (2-Methoxy-benzyl)-[5-(5-methyl-[1,2,4]oxadiazol-3-yl)-quinolin-2-yl]-amine] |  | 121.5 | 
Cc1cc2cccc(Nc3ccc4c(NS(=O)(=O)c5cc(F)cc(F)c5)cccc4n3)c2o1 [Example 89, 3,5-Difluoro-N-[2-(2-methyl-benzofuran-7-ylamino)-quinolin-5-yl]-benzenesulfonamide] | 50.6 |  | 
Cc1ccc(CNc2ccc3c(NS(=O)(=O)c4cccc(F)c4)cccc3n2)o1 [Example 73, 3-Fluoro-N-{2-[(5-methyl-furan-2-ylmethyl)-amino]-quinolin-5-yl}-benzenesulfonamide] | 21.4 |  | 
Cc1ccc(CNc2ccc3c(NS(=O)(=O)c4ccc(Cl)nc4)cccc3n2)o1 [Example 59, 6-Chloro-pyridine-3-sulfonic acid {2-[(5-methyl-furan-2-ylmethyl)-amino]-quinolin-5-yl}-amide] | 19.9 |  | 
COc1ccccc1CNc1ccc2c(NCc3ccccc3OC)cccc2n1 [Example 6, N2,N5-Bis-(2-methoxy-benzyl)-quinoline-2,5-diamine] | 10.2 |  | 
Cc1ccc(CNc2ccc3c(NCc4nccs4)cccc3n2)o1 [Example 100, N2-(5-Methyl-furan-2-ylmethyl)-N5-thiazol-2-ylmethyl-quinoline-2,5-diamine] | 22.7 |  | 
Cc1cc2cccc(Nc3ccc4c(NCc5cc(F)cc(F)c5)cccc4n3)c2o1 [Example 132, N5-(3,5-Difluoro-benzyl)-N2-(2-methyl-benzofuran-7-yl)-quinoline-2,5-diamine] | 15 |  | 
Cc1ccc(CNc2ccc3c(CNc4ccccc4)cccc3n2)o1 [Example 22, (5-Methyl-furan-2-ylmethyl)-(5-phenylaminomethyl-quinolin-2-yl)-amine] | 23.5 |  | 
Cc1ccc(CNc2ccc3c(CCc4ccccc4)cccc3n2)o1 [Example 17, (5-Methyl-furan-2-ylmethyl)-(5-phenethyl-quinolin-2-yl)-amine] | 21.3 |  | 
Cc1cccc(CNc2cccc3nc(NCc4ccc(C)o4)ccc23)n1 [Example 29, N2-(5-Methyl-furan-2-ylmethyl)-N5-(6-methyl-pyridin-2-ylmethyl)-quinoline-2,5-diamine] | 17.5 |  | 
Cc1ccc(CNc2ccc3c(NCc4ccc5[nH]cnc5c4)cccc3n2)o1 [Example 107, N5-(1H-Benzoimidazol-5-ylmethyl)-N2-(5-methyl-furan-2-ylmethyl)-quinoline-2,5-diamine] | 3.92 |  | 
Cc1ccc(CNc2ccc3c(NC4CCS(=O)(=O)c5ccccc54)cccc3n2)o1 (racemic) [Example 143, rac-5-(1,1-Dioxo-1l6-thiochroman-4-yl)-N2-(5-methyl-furan-2-ylmethyl)-quinoline-2,5-diamine] | 18.2 |  | 
c1cc(Nc2ccc3c(NCc4ccc5[nH]cnc5c4)cccc3n2)cc(C2CC2)c1 [Example 165, N5-(1H-Benzoimidazol-5-ylmethyl)-N2-(3-cyclopropyl-phenyl)-quinoline-2,5-diamine] | 6.43 |  | 
Cc1nc(CNc2cccc3nc(NCc4ccc(C)o4)ccc23)c[nH]1 [Example 90, N2-(5-Methyl-furan-2-ylmethyl)-N5-(2-methyl-1H-imidazol-4-ylmethyl)-quinoline-2,5-diamine] | 52.9 |  | 
O=S(=O)(Nc1cccc2nc(Nc3cccc4c3OCC4)ccc12)c1cc(F)cc(F)c1 [Example 139, N-[2-(2,3-Dihydro-benzofuran-7-ylamino)-quinolin-5-yl]-3,5-difluoro-benzenesulfonamide] | 35.5 |  | 
Cc1ccc(CNc2ccc3c(Nc4ccc(Cl)nc4)cccc3n2)o1 [Example 57, N5-(6-Chloro-pyridin-3-yl)-N2-(5-methyl-furan-2-ylmethyl)-quinoline-2,5-diamine] | 31.4 |  | 
CC1Cc2cccc(Nc3ccc4c(NCc5cccc6[nH]ccc56)cccc4n3)c2O1 (centres unmarked) [Example 140, N5-(1H-Indol-4-ylmethyl)-N2-(2-methyl-2,3-dihydro-benzofuran-7-yl)-quinoline-2,5-diamine] | 11.9 |  | 
CC(Nc1cccc2nc(Nc3cccc4c3OC(C)(C)C4)ccc12)c1nccs1 (racemic) [Example 160, rac-N2-(2,2-Dimethyl-2,3-dihydro-benzofuran-7-yl)-N5-(1-thiazol-2-yl-ethyl)-quinoline-2,5-diamine] | 15.8 |  | 
COc1ccccc1CNc1ccc2c(NCc3ccncc3)cccc2n1 [Example 9, N2-(2-Methoxy-benzyl)-N5-pyridin-4-ylmethyl-quinoline-2,5-diamine] | 34.5 |  | 
Cc1ccc(CNc2ccc3c(Nc4cccc5cc[nH]c45)cccc3n2)o1 [Example 93, N5-(1H-Indol-7-yl)-N2-(5-methyl-furan-2-ylmethyl)-quinoline-2,5-diamine] | 28.2 |  | 
CC(C)(C)c1cccc(Nc2ccc3c(NS(=O)(=O)c4cc(F)cc(F)c4)cccc3n2)c1 [Example 161, N-[2-(3-tert-Butyl-phenylamino)-quinolin-5-yl]-3,5-difluoro-benzenesulfonamide] | 35.5 |  | 
COc1ccccc1CNc1ccc2c(CCc3cccnc3)cccc2n1 [Example 16, (2-Methoxy-benzyl)-[5-(2-pyridin-3-yl-ethyl)-quinolin-2-yl]-amine] | 32.6 |  | 
CC(Nc1cccc2nc(Nc3cccc4c3OC(C)(C)C4)ccc12)c1cc(F)cc(F)c1 (single isomer, unassigned; (+)) [Example 158, (+)-N5-[1-(3,5-Difluoro-phenyl)-ethyl]-N2-(2,2-dimethyl-2,3-dihydro-benzofuran-7-yl)-quinoline-2,5-diamine] | 3.1 |  | more active
Cc1ccc(CNc2ccc3c(Nc4ccc(F)cc4)cccc3n2)o1 [Example 45, N5-(4-Fluoro-phenyl)-N2-(5-methyl-furan-2-ylmethyl)-quinoline-2,5-diamine] | 13.2 |  | 
c1cc(CNc2ccc3c(NCc4cccc5[nH]ccc45)cccc3n2)c2c(c1)OCCO2 [Example 118, N2-(2,3-Dihydro-benzo[1,4]dioxin-5-ylmethyl)-N5-(1H-indol-4-ylmethyl)-quinoline-2,5-diamine] | 5.66 |  | 
Cc1cc2cccc(Nc3ccc4c(NS(=O)(=O)c5ccc(F)cc5)cccc4n3)c2o1 [Example 128, 4-Fluoro-N-[2-(2-methyl-benzofuran-7-ylamino)-quinolin-5-yl]-benzenesulfonamide] | 79.7 |  | 
